{
  "source": "patent US12486259B2",
  "about": "“FXR agonist having pyrazine structure, and preparation method and use” (JIANGSU TASLY DIYI PHARMACEUTICAL CO., LTD., priority 2020, dated 2025)",
  "system": "C57/BL6 mice fed MCD diet",
  "test": "Pharmacodynamic test in methionine-choline deficient diet (MCD) model of non-alcoholic fatty liver disease",
  "format": "in vivo",
  "method": "Animal strain: C57/BL6, Animal Grade: SPF Grade, Gender: male, Animal Age: 8 weeks old, Animals Received Date: 2018 Sep. 28, Animal Source: Shanghai Lingchang Biotechnology Co. Ltd., Animal Certificate No: SCXK (Shanghai)2013-0018 2013001836799, Mouse feeding Environment: temperature 20-26° C., humidity 40-70%, 12 hour day and night cycle.\n5% Solutol HS15/Normal saline: after Solutol HS15 (polyethylene glycol 15 hydroxystearate solubilizer) is dissolved in a water bath at 37° C., 5 ml of it is dissolved in 100 ml of normal saline, thoroughly stirred for later use.\nObeticholic acid/5% Solutol HS15/Normal saline: 0.15 ml Solutol HS15 is added to accurately weighed 12 mg obeticholic acid to fully dissolve it, and 2.85 ml normal saline is added, vigorously mixed and dissolved by the ultrasound. • TM-01 Group/5% Solutol HS15/Normal saline: 2.5 ml of 6 mg/ml TM-01 suspension is taken, 2.5 ml of 5% Solutol HS15/normal saline is added, and the mixture is mixed well. • TM-02 Group/5% Solutol HS15/Normal saline: 2.5 ml of 6 mg/ml TM-02 suspension is taken, 2.5 ml of 5% Solutol HS15/normal saline is added, and the mixture is mixed well. • TM-06 Group/5% Solutol HS15/Normal saline: 2.5 ml of 6 mg/ml TM-06 suspension is taken, 2.5 ml of 5% Solutol HS15/Normal saline is added, and the mixture is mixed well. • TM-09 Group/5% Solutol HS15/Normal saline: 2.5 ml of 6 mg/ml TM-09 suspension is taken, 2.5 ml of 5% Solutol HS15/Normal saline is added, and the mixture is mixed well.\nMenstruum and test compounds are administered by gavage at a dose volume of 10 ml/kg;\nAfter reaching the animal house, 70 8-week-old C57/BL6 mice are fed adaptively and randomly divided into 7 groups according to body weight after the average body weight reaches 23 g. They are given the model feed. The first group receives the control diet MCS and the remaining groups receive the MCD diet, while each group of mice receives compound treatment as follows: • Group 1. Control Group: MCS, menstruum, administered once daily by gavage; • Group 2. Model Group: MCD, menstruum, administered once daily by gavage; • Group 3. Obeticholic acid group: MCD, 40 mpk obeticholic acid, administered once daily by gavage; • Group 4. TM-01 Group: MCD, 30 mpk TM-01, administered once daily by gavage; • Group 5. TM-02 Group: MCD, 30 mpk TM-02, administered once daily by gavage; • Group 6. TM-06 Group: MCD, 30 mpk TM-06, administered once daily by gavage; • Group 7. TM-09 Group: MCD, 30 mpk TM-09, administered once daily by gavage; 2.4 Experimental Methods\nBody weight and food intake are measured weekly during the experiment. Twenty-one days after administration, tail tips are bled with microcapillaries for AST, ALT measurements. Twenty-eight days after administration, mice are terminated, hearts are bled, and liver tissues are collected and weighed. One portion is snap frozen with liquid nitrogen for subsequent analysis and the other portion are fixed for pathological analysis.\nMouse blood is centrifuged at 5000 rpm for 10 minutes and supernatants are collected for determination of TG (triglycerides), TC (total cholesterol), HDL (high density lipoprotein), LDL (low density lipoprotein), AST (aspartate aminotransferase) and ALT (alanine aminotransferase).\nAST and ALT after administration for three and four weeks are determined according to the instructions of kit. The blood lipid index 4 weeks after administration is sent to Adicon Medical Laboratory Co. Ltd. for detection.\nThe livers are removed from −80° C., homogenized in PBS (phosphate buffered saline), extracted with chloroform methanol organic phase, and subjected to TC and TG assays using the kit, normalized for protein content.\nFour weeks after administration, the mice are anesthetized. The heart is bled, the liver is isolated and weighed. The right lobe is snapfrozen with liquid nitrogen and stored at −80° C. for liver lipid analysis. The left lobe is isolated and fixed in 10% formalin for subsequent HE and Sirius Red staining. […]",
  "key": {"[1]": {"details": "MCD mice, after 4 weeks, TM 30 mpk, obeticholic acid 40 mpk"}, "[2]": {"details": "MCD mice, blood, 3 weeks, TM 30 mpk, obeticholic acid 40 mpk, gavage"}, "[3]": {"details": "MCD mice, blood, 4 weeks, TM 30 mpk, obeticholic acid 40 mpk, gavage"}, "[4]": {"details": "MCD mice, blood, after 4 weeks, TM 30 mpk, obeticholic acid 40 mpk"}, "[5]": {"details": "MCD mice, liver, after 4 weeks, TM 30 mpk, obeticholic acid 40 mpk"}, "[6]": {"details": "after 4 weeks of MCD and compounds treatment"}},
  "data": [
    {"smiles": "O=C(O)c1cccc(N2CC(O)(c3cnc(OCc4c(-c5c(Cl)cccc5Cl)noc4C4CC4)cn3)C2)c1", "note": "[TM-02, 3-(3-(5-((5-cyclopropyl-3-(2,6-dichlorophenyl)isoxazol-4-yl)methoxy)pyrazine-2-yl)-3-hydroxyazetidin-1-yl) benzoic acid]", "values": [
      {"measurement": "Weight, 0 week", "setting": "MCD mice, 0 week, TM compounds 30 mpk, obeticholic acid 40 mpk, once daily by gavage", "value": "23.71 ± 0.35", "unit": "g"},
      {"measurement": "Food intake, 1 week", "setting": "MCD mice, 1 week, TM 30 mpk, obeticholic acid 40 mpk, gavage", "value": "2.190 ± 0.504", "unit": "g"},
      {"measurement": "Weight, 1 week", "setting": "MCD mice, 1 week, TM compounds 30 mpk, obeticholic acid 40 mpk, once daily by gavage", "value": "21.52 ± 0.42", "unit": "g"},
      {"measurement": "Food intake, 2 weeks", "setting": "MCD mice, 2 weeks, TM 30 mpk, obeticholic acid 40 mpk, gavage", "value": "2.400 ± 0.288", "unit": "g"},
      {"measurement": "Weight, 2 weeks", "setting": "MCD mice, 2 weeks, TM compounds 30 mpk, obeticholic acid 40 mpk, once daily by gavage", "value": "18.81 ± 0.49", "unit": "g"},
      {"measurement": "Food intake, 3 weeks", "setting": "MCD mice, 3 weeks, TM 30 mpk, obeticholic acid 40 mpk, gavage", "value": "1.688 ± 0.266", "unit": "g"},
      {"measurement": "Weight, 3 weeks", "setting": "MCD mice, 3 weeks, TM compounds 30 mpk, obeticholic acid 40 mpk, once daily by gavage", "value": "16.69 ± 0.34", "unit": "g"},
      {"measurement": "Food intake, 4 weeks", "setting": "MCD mice, 4 weeks, TM 30 mpk, obeticholic acid 40 mpk, gavage", "value": "1.518 ± 0.376", "unit": "g"},
      {"measurement": "Weight, 4 week", "setting": "MCD mice, 4 weeks, TM compounds 30 mpk, obeticholic acid 40 mpk, once daily by gavage", "value": "15.48 ± 0.35", "unit": "g"},
      {"measurement": "liver weight", "setting": "[1]", "value": "0.85 ± 0.05", "unit": "g"},
      {"measurement": "liver/body weight", "setting": "[1]", "value": "5.48 ± 0.28", "unit": "%"},
      {"measurement": "ALT, 3 weeks", "setting": "[2]", "value": "183.36 ± 29.85", "unit": "U/L"},
      {"measurement": "AST, 3 weeks", "setting": "[2]", "value": "113.46 ± 13.79", "unit": "U/L"},
      {"measurement": "ALT, 4 weeks", "setting": "[3]", "value": "90.68 ± 42.13", "unit": "U/L"},
      {"measurement": "AST, 4 weeks", "setting": "[3]", "value": "83.24 ± 12.08", "unit": "U/L"},
      {"measurement": "HDL (blood lipid)", "setting": "[4]", "value": "0.61 ± 0.02", "unit": "mmol/L"},
      {"measurement": "LDL (blood lipid)", "setting": "[4]", "value": "2.93 ± 0.12", "unit": "mmol/L"},
      {"measurement": "TC (blood lipid)", "setting": "[4]", "value": "1.25 ± 0.14", "unit": "mmol/L"},
      {"measurement": "TG (blood lipid)", "setting": "[4]", "value": "0.57 ± 0.06", "unit": "mmol/L"},
      {"measurement": "HE score", "setting": "MCD mice, liver pathology score (Table 12 criteria), 4 weeks, TM 30 mpk, obeticholic acid 40 mpk", "value": 1.4},
      {"measurement": "Sirius red staining area", "setting": "MCD mice, liver, 4 weeks, TM 30 mpk, obeticholic acid 40 mpk", "value": "0.398 ± 0.030", "unit": "%"},
      {"measurement": "liver TC", "setting": "[5]", "value": "41.7 ± 5.73", "unit": "µmol/g protein"},
      {"measurement": "liver TG", "setting": "[5]", "value": "307 ± 26.3", "unit": "µmol/g protein"},
      {"measurement": "blood lipid levels (in words)", "setting": "[6]", "value": "different reductions in blood lipids"},
      {"measurement": "liver triglyceride and cholesterol content (in words)", "setting": "[6]", "value": "different lowering effects"},
      {"measurement": "liver weight and liver/body weight (in words)", "setting": "[6]", "value": "significantly increases mouse liver weight and liver/body weight"},
      {"measurement": "ALT and AST compared to the model group (in words)", "setting": "three weeks after MCD and compounds treatment", "value": "showing the same way as the obeticholic acid group"}
    ]}
  ]
}
